From ChEMBL document CHEMBL1148540, “Tetrahydrobenzothiophene inhibitors of hepatitis C virus NS5B polymerase” (Bioorg Med Chem Lett, 2006)

What was measured:
[1] = target: T1, RNA-directed RNA polymerase (Hepacivirus hominis, UniProt O39930); assay: Inhibitory activity against HCV 4a NS5B full length RNA dependent RNA polymerase; parameters: species or system Hepatitis C virus subtype 4a
[2] = Permeability across Caco-2 cell membrane; type: ADME, cell-based; conditions: human, read-out: permeability
[3] = target: T1, RNA-directed RNA polymerase; assay: Inhibitory activity against delta-21 C-terminally truncated HCV 1b (BB7 isolate) RNA dependent RNA polymerase; parameters: species or system Hepatitis C virus subtype 1b

T1 sequence (O39930 whole entry): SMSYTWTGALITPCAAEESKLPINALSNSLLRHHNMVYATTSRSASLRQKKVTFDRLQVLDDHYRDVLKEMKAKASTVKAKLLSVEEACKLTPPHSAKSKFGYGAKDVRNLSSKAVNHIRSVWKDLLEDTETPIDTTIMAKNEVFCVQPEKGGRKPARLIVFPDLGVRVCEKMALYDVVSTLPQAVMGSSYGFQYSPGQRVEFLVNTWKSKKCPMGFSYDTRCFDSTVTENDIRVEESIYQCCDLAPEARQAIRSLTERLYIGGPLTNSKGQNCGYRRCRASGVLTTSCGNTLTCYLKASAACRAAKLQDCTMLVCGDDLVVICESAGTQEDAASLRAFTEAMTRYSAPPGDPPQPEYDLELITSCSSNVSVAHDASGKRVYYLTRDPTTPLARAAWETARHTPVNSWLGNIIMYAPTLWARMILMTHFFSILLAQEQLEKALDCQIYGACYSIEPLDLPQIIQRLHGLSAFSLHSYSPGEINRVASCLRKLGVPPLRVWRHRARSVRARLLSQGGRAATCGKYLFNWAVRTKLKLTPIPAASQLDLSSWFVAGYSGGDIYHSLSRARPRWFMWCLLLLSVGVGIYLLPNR

SMILES | IC50 [1] [nM] | Papp [2] [×10⁻⁶ cm/s] | IC50 [3] [nM]
CCOC(=O)c1c(NC(=O)NS(=O)(=O)c2cccc(C)c2)sc2c1CCCC2 | 900 | – | –
CCOC(=O)c1c(NC(=O)NS(=O)(=O)c2ccc(Cl)cc2)sc2c1CCCC2 | 1000 | – | –
CCOC(=O)c1c(NC(=O)NS(=O)(=O)c2ccccn2)sc2c1CCC(C)(C)C2 | 40 | > 3 | 150
CCOC(=O)c1c(NC(=O)NS(=O)(=O)N2CCc3ccccc32)sc2c1CCC(C)(C)C2 | 200 | – | 260
CCOC(=O)c1c(NC(=O)NS(=O)(=O)N2CCOCC2)sc2c1CCC(C)(C)C2 | 300 | – | 2500
CCOC(=O)c1c(NC(=O)NS(=O)(=O)c2ccc(C)cc2)sc2c1CCC(C)C2 (centres undefined) | 200 | – | –
CCOC(=O)c1c(NC(=O)NS(=O)(=O)c2cccc3ccccc23)sc2c1CCCC2 | 700 | – | –
CCOC(=O)c1c(NC(=O)NS(=O)(=O)N2CCCCC2)sc2c1CCC(C)(C)C2 | 200 | – | 1000
CCOC(=O)c1c(NC(=O)NS(=O)(=O)N2CCN(C)CC2)sc2c1CCC(C)(C)C2 | 400 | – | 2000
CCOC(=O)c1c(NC(=O)NS(=O)(=O)c2cccc(OC)c2)sc2c1CCCC2 | 1200 | – | –
CCOC(=O)c1c(NC(=O)NS(=O)(=O)c2ccc(C#N)cc2)sc2c1CCC(C)(C)C2 | 90 | > 3 | 400
CCOC(=O)c1c(NC(=O)NS(=O)(=O)c2ccc(C)cc2)sc2c1CC(C)CC2 (centres undefined) | 500 | – | –
CCOC(=O)c1c(NC(=O)c2nccnc2C(=O)O)sc2c1CCCC2 | 4000 | – | –
CCOC(=O)c1c(NC(=O)NS(=O)(=O)c2ccc(F)cc2)sc2c1CCC(C)(C)C2 | 60 | > 3 | 500
CCOC(=O)c1c(NC(=O)NS(=O)(=O)c2ccccc2OC(F)(F)F)sc2c1CCC(C)(C)C2 | 150 | > 3 | 400
CCOC(=O)c1c(NC(=O)NS(=O)(=O)c2nccn2C)sc2c1CCC(C)(C)C2 | 80 | > 3 | 150
CCOC(=O)c1c(NC(=O)NS(=O)(=O)c2ccc(C)cc2)sc2c1C(C)CCC2 (centres undefined) | 2000 | – | –

SMILES | IC50 [1] [nM] | Papp [2] [×10⁻⁶ cm/s] | IC50 [3] [nM]
CCOC(=O)c1c(NC(=O)NS(=O)(=O)N2CCc3ccccc3C2)sc2c1CCC(C)(C)C2 | 100 | – | 600
CCOC(=O)c1c(NC(=O)NS(=O)(=O)c2ccccc2)sc2c1CCCC2 | 700 | – | –
CCOC(=O)c1c(NC(=O)NS(=O)(=O)N2CCN(C(C)=O)CC2)sc2c1CCC(C)(C)C2 | 300 | – | 600
CCOC(=O)c1c(NC(=O)NS(=O)(=O)c2ccccc2C(F)(F)F)sc2c1CCC(C)(C)C2 | 50 | > 3 | 200
CCOC(=O)c1c(NC(=O)NS(=O)(=O)c2ncccn2)sc2c1CCC(C)(C)C2 | 50 | > 3 | 300
CCCCS(=O)(=O)NC(=O)Nc1sc2c(c1C(=O)OCC)CCCC2 | 4900 | – | –
CCOC(=O)c1c(NC(=O)NS(=O)(=O)c2ccccc2)sc2c1CCC(C)(C)C2 | 90 | > 3 | 200
CCOC(=O)c1c(NC(=O)NS(=O)(=O)c2ccc(F)cc2)sc2c1CCCC2 | 1700 | – | –
CCOC(=O)c1c(NC(=O)NS(=O)(=O)c2ccc(C)cc2)sc2c1CCCC2 | 1000 | – | –
CCOC(=O)c1c(NC(=O)NS(=O)(=O)c2ccc([N+](=O)[O-])cc2)sc2c1CCCC2 | 2800 | – | –
CCOC(=O)c1c(NC(=O)NS(=O)(=O)N2CCCC2)sc2c1CCC(C)(C)C2 | 200 | – | 400
CCOC(=O)c1c(NC(=O)NS(=O)(=O)N2CCCCCC2)sc2c1CCC(C)(C)C2 | 500 | – | 1100
CCOC(=O)c1c(NC(=O)NS(C)(=O)=O)sc2c1CCCC2 | 3800 | – | –
CCOC(=O)c1c(NC(=O)NS(=O)(=O)c2ccc(C)cn2)sc2c1CCC(C)(C)C2 | 50 | > 3 | 200
CCOC(=O)c1c(NC(=O)NS(=O)(=O)c2ccc(C)cc2)sc2c1CCC(C)(C)C2 | 90 | > 3 | 400
CCOC(=O)c1c(NC(=O)NS(=O)(=O)c2ccnn2C)sc2c1CCC(C)(C)C2 | 50 | > 3 | 260
CCOC(=O)c1c(NC(=O)NS(=O)(=O)c2ccccc2C)sc2c1CCCC2 | 900 | – | –
